This is an account of results in paper PMC9960778, “Polymer-Antimicrobial Peptide Constructs with Tailored Drug-Release Behavior” (Pharmaceutics, 2023).

≈ marks a conversion by molar mass, not a printed value. Starred links: 1 amine or outer side, 2 acyl side, 3 side chain; linkers in the order of their positions; H or OH if unused. Non-standard residues stand in square brackets, D forms with d. Residues, ends and D or L forms follow the SMILES beside them. No end group written: not given here. *: point of attachment. X1 = N=c1ccc2c(-c3ccccc3C(=O)*)c3ccc(N)c(S(=O)(=O)O)c3oc-2c1S(=O)(=O)O; NMeGABA = CN(CCCC(=O)[*:2])[*:1]

The test system of data set [1] is E. coli. Put plainly: Fluorescent microscopy of labeled peptide/constructs with bacteria. The conditions noted are these: labeled sample added at amount corresponding to its MIC, spinning disc confocal, ex 488 nm, em 525 nm. The format is cell-based, Escherichia coli.
Method: The densities of the fresh overnight bacterial cultures were adjusted to the 0.5 McFarland standard, and 100 µL was placed in a sterile 96-well plate. The plates were incubated at room temperature for 2 h before the amount of fluorescently labeled F-PEP or F-P-PEP construct corresponding to its MIC was added to the appropriate wells. Images were captured immediately using a spinning disc confocal microscope (Andor xD revolution) on the Olympus IX81 platform and analyzed with iQ3 software, the excitation wavelength was 488 nm and the emission wavelength was 525 nm.
Data set [2] concerns Staphylococcus aureus (CCM 4516). The class given is cell-based. The conditions noted are these: S. aureus (Gram-positive); Mueller-Hinton broth/PBS 1:1, 35 °C, OD 625 nm every 60 min for 20 h; MIC as molar concentration of PEP; mean of at least three independent experiments. How it is done:
(§1) The antibacterial properties of HPMA-PEP constructs were tested against Acinetobacter baumanii (CCM 2355), Escherichia coli (CCM 4517), Staphylococcus epidermidis (CCM 2124), and Staphylococcus aureus (CCM 4516) (Czech Collection of Microorganisms, Brno, Czech Republic) in vitro. A single colony of the test microorganism was transferred into 5 mL of sterile broth (Luria-Bertani medium, Sigma) and cultivated overnight at 37 °C to prepare a bacterial test suspension in a double-concentrated Mueller-Hinton broth at a density equivalent to a 0.5 McFarland standard. Desired weight of lyophilized PEP or polymer-PEP was resuspended in sterile PBS and a concentration series was prepared. The bacterial suspension was then mixed with different concentrations of the PEP or polymer-PEP construct diluted in 1:1 in PBS and cultured at 35 °C. The bacterial growth was measured spectrophotometrically at 625 nm every 60 min for 20 h using an EON microplate spectrophotometer (Agilent Technologies, Santa Clara, CA, USA).
(§2) The MIC was determined as the lowest concentration of PEP or polymer-PEP construct without observable bacterial growth. MIC was calculated as the molar concentration of PEP. […] If the bacteria were absent after 24 h of incubation, it was termed MBC.

Data set [3] deals with Staphylococcus epidermidis (CCM 2124). The class given is cell-based. The conditions noted are these: S. epidermidis (Gram-positive); Mueller-Hinton broth/PBS 1:1, 35 °C, OD 625 nm every 60 min for 20 h; MIC as molar concentration of PEP; mean of at least three independent experiments. On the procedure:
as §1, §2

For data set [4], the system named is Escherichia coli (CCM 4517). The class given is cell-based. The conditions noted are these: E. coli (Gram-negative); Mueller-Hinton broth/PBS 1:1, 35 °C, OD 625 nm every 60 min for 20 h; MIC as molar concentration of PEP; mean of at least three independent experiments. How it is done: as §1, §2
For data set [5], the system named is Acinetobacter baumanii (CCM 2355). The class given is cell-based. The conditions noted are these: A. baumanii (Gram-negative); Mueller-Hinton broth/PBS 1:1, 35 °C, OD 625 nm every 60 min for 20 h; MIC as molar concentration of PEP; mean of at least three independent experiments. On the procedure:
as §1, §2

The subject of data set [6] is S. aureus. The conditions noted are these: labeled sample added at amount corresponding to its MIC, spinning disc confocal, ex 488 nm, em 525 nm. On the procedure:
The densities of the fresh overnight bacterial cultures were adjusted to the 0.5 McFarland standard, and 100 µL was placed in a sterile 96-well plate. […] Images were captured immediately using a spinning disc confocal microscope (Andor xD revolution) on the Olympus IX81 platform and analyzed with iQ3 software, the excitation wavelength was 488 nm and the emission wavelength was 525 nm.

In data set [7] the target is cathepsin B (Homo sapiens, UniProt P07858). The class given is in vitro ADME. On the procedure:
The enzymatic activity of cathepsin B was probed immediately before the release measurements as described previously. The enzymolysis was monitored by HPLC and the rate of PEP release was calculated from the area of the corresponding polymer peaks from the fluorescent detector (excitation 280 nm, emission 350 nm of Trp in PEP). The spontaneous hydrolysis and release of PEP were measured by HPLC in two different PBS buffers to mimic the bloodstream, pH 7.4 and pH 5.5, at 37 °C.

Data set [8] relates to E. coli. Put plainly: Transmission electron microscopy (TEM) of treated bacteria. The format is cell-based, Escherichia coli. The conditions noted are these: 2 × MIC, 2.5 h of incubation, negative staining. On the procedure: (§3) Bacteria in the exponential growth phase were mixed with the PEP or polymer-PEP constructs at a concentration equivalent to 2×MIC. After 2.5 h of incubation, 10 µL of the suspension was placed on a copper carbon-coated electron microscopic copper grid (Sigma Aldrich, Saint Louis, MO, USA) and left to adhere for 10 min. Then, the grid was washed twice with dH2O and stained with 0.8% sodium silicotungstate (Agar Scientific, Stansted, UK), pH 7.4, for 40 s. The samples were analyzed using a JEOL JEM-1010 instrument (JEOL Ltd., Tokyo, Japan) with an SIS MegaView III digital camera (Soft Imaging Systems) at acceleration voltage 80 kV and AnalySIS Software 2.0.

The test system of data set [9] is S. aureus. The data set is described as above. The format is cell-based, Staphylococcus aureus. The conditions noted are these: 2×MIC, 2.5 h of incubation, negative staining. On the procedure: as §3

Take `CC[C@H](C)[C@H](NC(=O)[C@H](CCCCN)NC(=O)[C@H](CCCCN)NC(=O)[C@H](CC(C)C)NC(=O)[C@H](CC(C)C)NC(=O)[C@H](CCCCN)NC(=O)[C@H](CCSC)NC(=O)[C@H](Cc1c[nH]c2ccccc12)NC(=O)[C@H](CCCCN)NC(=O)CNC(=O)CCCN(C)C(=O)c1ccccc1-c1c2ccc(=N)c(S(=O)(=O)O)c-2oc2c(S(=O)(=O)O)c(N)ccc12)C(=O)N[C@@H](CC(C)C)C(=O)N[C@@H](CCCCN)C(N)=O` [F-PEP] (X1-[NMeGABA]GKWMKLLKKILK-NH2): the “Interaction / accumulation on bacterial cells (fluorescence microscopy)” value in data set [1] was “accumulation of F-PEP and F-P-PEP on the bacterial cells”. The MIC – broadly, the lowest concentration found to suppress growth – in data set [2] came to 72.9 µM (≈ 150 µg/mL); in data set [3], 29.2 µM (≈ 60.1 µg/mL); in data set [4] it was 18.2 µM (≈ 37.4 µg/mL); in [5], 36.5 µM (≈ 75.1 µg/mL).

Consider GKWMKLLKKILK-NH2 [PEP], for which the MIC in data set [2] stood at 10 µM; in data set [3], 3.4 µM; in data set [4] it was 5 µM; in data set [5], 5 µM.

As to “p(HPMA-co-Ma-β-Ala-ATTO-488-co-Ma-β-Ala-DBCO-azide-PEP) [F-P-PEP, fluorescently labeled non-cleavable polymer-PEP construct]”, the “Interaction / accumulation on bacterial cells (fluorescence microscopy)” value is “accumulation of F-PEP and F-P-PEP on the bacterial cells” in [1]; “considerably less F-P-PEP accumulated on S. aureus” in data set [6]. The MIC in data set [3] stood at 77.5 µM; in data set [4], 77.5 µM; in data set [5] it was 38.7 µM.

On to “p(HPMA-co-Ma-β-Ala-DBCO-ValCit-PEP) [P-ValCit-PEP, enzymatically cleavable polymer-PEP construct, ValCit spacer]”, for which the “PEP release in contact with cathepsin B” value in data set [7] is listed as “not releasing the PEP”. Besides, the results for the MIC in data set [4] and in data set [5] were 134 µM and 16.8 µM, respectively.

“p(HPMA-co-Ma-β-Ala-DBCO-azide-PEP) [P-PEP, non-cleavable polymer-PEP construct, control system]”: the “Effect on bacterial cell morphology (TEM)” value in [8] is “induced cell morphological changes”; in data set [9], “induced cell morphological changes, cell wall disruption and leakage of the cytoplasm”. For the same compound, the MIC amounted to 14.8 µM in [3], 74.1 µM in [4] and 9.3 µM in [5].
